Source: patent US8097282B2, “Methods of administering liquid droplet aerosols of nanoparticulate drugs” (Alkermes Pharma Ireland Limited, priority 1995, dated 2012)

Experiments:
[1] = Mean particle size of roller-milled WIN 68209 suspension; format: physicochemical; conditions: 30% suspension in aqueous F108 surfactant (6%), 7 days roller milling
Experimental: (§1) In this example, a suspension of WIN 68209 (30%) in aqueous F108 surfactant (6%) was prepared by conventional roller milling techniques (jar mill, zirconium silicate beads, 7 days milling time). The mean particle size of the resultant distribution was 196 nm. The formulation was administered to an anesthetized rabbit as follows: Several mL of formulation was placed in an ultrasonic nebulizer (DeVilbiss AeroSonic™) which was connected in-line with a mechanical ventilator, terminating in a suitable endotracheal tube. The rabbit was then intubated and administered the nebulized formulation for several minutes.

[2] = system: rabbit's pulmonary region; assay: Computed tomography (CT) after administration of ultrasonically nebulized formulation to an intubated anesthetized rabbit; format: in vivo; conditions: ultrasonic nebulizer, several minutes, 30% suspension in 6% F108
Experimental: as §1

[3] = format: physicochemical
Experimental: Nanoparticle Preparation and Characterization. Nanoparticles were prepared by media milling a suspension of 5% beclomethasone diproprionate in an aqueous solutions of PVA. Thus, the PVA was the surface modifier. The resulting particle size distribution was determined by dynamic light scattering. The particle size distribution was periodically monitored throughout the course of the study. […] In addition, particle size of the diluted dispersions remained constant for at least the duration of the experiment.

Structure (SMILES) | mean particle size [1] [nm] | CT scans of pulmonary region after nebulized administration [2] | chemical stability [3] | particle size stability [3] | particle size distribution ([3]; nanoparticles in 2.5% polyvinyl alcohol) [micrometer]
CCOC(=O)C=C(COC(=O)c1c(I)c(NC(C)=O)c(I)c(NC(C)=O)c1I)OCC [WIN 68209, benzoic acid, 3,5-bis(acetylamino)-2,4,6triodo-, 4(ethyl-3-ethoxy-2-butenoate) ester] | 196 | showed the presence of radiopaque contrast agent in the region | – | – | –
CCC(=O)OCC(=O)[C@@]1(OC(=O)CC)[C@@H](C)C[C@H]2[C@@H]3CCC4=CC(=O)C=C[C@]4(C)[C@@]3(Cl)[C@@H](O)C[C@@]21C.O [beclomethasone diproprionate, Beclomethasone diproprionate] | – | – | neither was there any evidence of chemical instability | remained constant throughout the course of the study | 0.26±0.13
